Read-outs that look alike come from different tables or passages of the source.
How the values were obtained:
[1] = molecular target: T1, dopamine D2 receptors (Homo sapiens (Human), UniProt P14416); assay: Dopamine D2 receptor radioligand competition binding assay ([3H]-Methylspiperone); conditions: [3H]-Methylspiperone 0.3 to 0.5 nM, 293T membranes
Summary of the method: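 Membranes from cells transfected with human D2 receptor, PEI-mediated; competition with [3H]-methylspiperone for 2 h at room temperature in the dark.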

[2] = molecular target: T1, dopamine D2 receptors; assay: Dopamine D2 receptor β-arrestin2 BRET (recruitment); assay type: cell-based; conditions: for Emax: relative to endogenous ligand dopamine, read-out: β-arrestin2 BRET Emax % ± SEM
Summary of the method: (§1)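 G-protein assay: cells co-transfected with D2 receptor, Gαi1-Rluc, Gβ3 and Gγ9-GFP (1 μg each); β-arrestin2 assay: D2-Rluc, GRK2 and GFP2-β-arrestin2 co-transfected. Cells were reseeded after one day and tested on day three. Drug dilution series were added in duplicate with coelenterazine 400a (5 μM final), and the BRET signal was read.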

[3] = system: MK801-induced hyperlocomotion in mice; assay: Open field test, MK801-induced hyperlocomotion (schizophrenia-like model); assay type: in vivo, C57B6 male mice; conditions: for inhibition of MK801-induced hyperlocomotion in mice (in words): at different doses
Procedure: Experimental method: The experimental animals were C57B6 male mice, n=8 in each group. In this model, C57B6 mice were used as experimental animals. Hyperlocomotion of the mice in open field was induced by acute injection of a NMDA antagonist MK801, and modeled to test the inhibitory effect of different compounds on hyperlocomotion phenotype induced by MK801 All mouse behavior experiments were carried out during the light period. The whole process was recorded by the camera, and locomotive data were tracked and analyzed by behavioral tracking software. The compounds were administered intraperitoneally. Immediately after the injection, the mice entered the open field and their movement trajectories were recorded by the camera. After 30 minutes, the mice received 0.2 mg/kg of MK801 by intraperitoneal injection and returned to the open field immediately after administration, and the movement trajectories were further recorded for 120 minutes. The accumulative travelled distance of the mice was counted in a 5-minute bin. Data statistics were performed using Student-t-test analysis, *p<0.05, **p<0.01, ***p<0.001, ****p<0.0001. The total travelled distance of the mice in the 0-45 minute interval after administration of the compounds of the present disclosure at different doses in combination with MK801 (0.2 mg/kg) is shown in Table 10.

[4] = Brain permeability test, single intraperitoneal dose in C57 male mice; assay type: in vivo; conditions: intraperitoneal 5 mg/kg; for concentration at 0.5 h / concentration at 2 h / Kp at 0.5 h / Kp at 2 h / Kp at 4 h / Kp / concentration at 4 h / AUC: male, C57, mouse; for Kp at 0.5 h / Kp at 2 h / Kp at 4 h / Kp: brain/plasma; for Kp at 0.5 h / Kp at 2 h / Kp at 4 h / Kp / AUC: ip; for Kp at 0.5 h: read-out: 0.5 h ratio (brain/plasma); for Kp at 2 h: read-out: 2.0 h ratio (brain/plasma); for Kp at 4 h: read-out: 4.0 h ratio (brain/plasma); for Kp: read-out: AUC ratio (brain/plasma)
Procedure: Using the same method as that in the pharmacokinetic experiment, 0.030 mL of blood was collected from the orbit of each animal at 0.5 hours, 2.0 hours, and 4.0 hours, and anticoagulated with EDTA-K2. Blood samples were placed on ice after collection, and plasma was separated by centrifugation within 30 minutes (centrifugation conditions: 5000 rpm, 10 minutes, 4° C.). The collected plasma was stored at −80° C. before analysis. […] The homogenate was stored at −80° C. before analysis. Drug concentrations in plasma and brain tissues were analyzed by LC/MS/MS for comparison.

[5] = molecular target: T1, dopamine D2 receptors; assay: Dopamine D2 receptor Gαi1 BRET (G protein trimer dissociation); assay type: cell-based; conditions: for Emax: relative to endogenous ligand dopamine, read-out: Gαi1 BRET Emax % ± SEM
Summary of the method: as §1

[6] = unit printed only in Cariprazine cell, read-out: β-arrestin2 BRET EC50
[7] = MK801 0.2 mg/kg + compound 0.0156 mg/kg i.p.
[8] = MK801 0.2 mg/kg + compound 0.0625 mg/kg i.p.
[9] = MK801 0.2 mg/kg + compound 0.25 mg/kg i.p.
[10] = brain, read-out: 0.5 h brain concentration
[11] = plasma, read-out: 0.5 h plasma concentration
[12] = brain, read-out: 2.0 h brain concentration
[13] = plasma, read-out: 2.0 h plasma concentration
[14] = read-out: Gαi1 BRET pEC50 ± SEM (converted)
[15] = unit printed only in Cariprazine cell, read-out: Gαi1 BRET EC50
[16] = read-out: Affinity pKi ± SEM (converted)
[17] = read-out: β-arrestin2 BRET pEC50 ± SEM (converted)
[18] = brain, read-out: 4.0 h brain concentration
[19] = plasma, read-out: 4.0 h plasma concentration

T1 sequence (P14416 whole entry): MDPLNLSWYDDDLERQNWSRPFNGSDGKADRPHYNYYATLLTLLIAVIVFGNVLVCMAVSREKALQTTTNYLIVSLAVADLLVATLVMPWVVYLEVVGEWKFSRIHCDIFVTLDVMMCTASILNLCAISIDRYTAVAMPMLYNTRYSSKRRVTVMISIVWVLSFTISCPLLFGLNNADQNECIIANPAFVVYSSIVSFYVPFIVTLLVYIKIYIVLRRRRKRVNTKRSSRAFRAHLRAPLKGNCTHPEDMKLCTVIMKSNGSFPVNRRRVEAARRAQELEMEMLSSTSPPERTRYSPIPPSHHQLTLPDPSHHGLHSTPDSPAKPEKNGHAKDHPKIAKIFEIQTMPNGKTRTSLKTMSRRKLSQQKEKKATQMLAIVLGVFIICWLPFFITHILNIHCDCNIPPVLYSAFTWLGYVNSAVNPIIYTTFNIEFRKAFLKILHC

Structure (SMILES) | Ki ([1]; read-out: Affinity Ki) [nM] | EC50 [2, 6] [nM] | Distance travelled in 45 minutes [3, 7] [cm] | Distance travelled in 45 minutes [3, 8] [cm] | Distance travelled in 45 minutes [3, 9] [cm] | inhibition of MK801-induced hyperlocomotion in mice (in words) [3] | concentration at 0.5 h [4, 10] [ng/mL] | concentration at 0.5 h [4, 11] [ng/mL] | concentration at 2 h [4, 12] [ng/mL] | concentration at 2 h [4, 13] [ng/mL] | EC50 [5, 14] [nM] | Emax [5] [%] | EC50 [5, 15] [nM] | Ki [1, 16] [nM] | EC50 [2, 17] [nM] | Emax [2] [%] | Kp at 0.5 h [4] | Kp at 2 h [4] | AUC brain ([4]; brain) [ng·h/mL] | Kp at 4 h [4] | other results
COc1cccc2c3c(oc12)CN(CCCCOc1ccc2ccc(=O)[nH]c2c1)CC3 [I-A1, 7-(4-(8-methoxy-3,4-dihydrobenzofuro[2,3-c]pyridin-2(1H)-yl)butoxy)quinolin-2(1H)-one] | 84.4 | 27.7 | 9023 | 10706 | 3630 | significantly inhibit | 1110 ± 43 | 2220 ± 447 | 236 ± 25 | 397 ± 26.3 | 23.4 | 55 | 48.8 | – | – | – | – | – | – | – | Affinity pKi ± SEM [1]: (7.07 ± 0.02); β-arrestin2 BRET pEC50 ± SEM [2]: (7.62 ± 0.17)
COc1cccc2c3c(oc12)CN(CC[C@H]1CC[C@H](NC(=O)N(C)C)CC1)CC3 [I-A12, 3-(trans-4-(2-(8-methoxy-3,4-dihydrobenzofuro[2,3-c]pyridin-2(1H)-yl)ethyl)cyclohexyl)-1,1-dimethylurea] | 436 | 10.7 | 12729 | 5648 | 2267 | significantly inhibit | 1400 ± 220 | 830 ± 119 | 455 ± 61 | 202 ± 56.2 | – | 70 | 1.38 | 372 | 8.13 | 108 | 1.69 | 2.26 | – | – | –
COc1cccc2c3c([nH]c12)CN(CC[C@H]1CC[C@H](NC(=O)N(C)C)CC1)CC3 [I-B7, 3-(trans-4-(2-(8-methoxy-1,3,4,9-tetrahydro-2H-pyrido[3,4-b]indol-2-yl)ethyl)cyclohexyl)-1,1-dimethylurea] | 2.71 | 0.24 | – | – | 13668 | significantly inhibit | 392 ± 15 | 598 ± 19 | 73 ± 129 | 114 ± 67.9 | 11.2 | 21 | 17 | 1.82 | 0.107 | 44 | 0.656 | 0.643 | – | – | Distance travelled in 45 minutes ([3]; MK801 0.2 mg/kg + compound 1 mg/kg i.p.): 10199 cm; Distance travelled in 45 minutes ([3]; MK801 0.2 mg/kg + compound 4 mg/kg i.p.): 4360 cm
COc1cccc2c1cc1n2CCN(CCCCOc2ccc3ccc(=O)[nH]c3c2)C1 [I-C1, 7-(4-(9-methoxy-3,4-dihydropyrazino[1,2-a]indol-2(1H)-yl)butoxy)quinolin-2(1H)-one] | 401 | 220 | – | – | – | – | 1940 ± 63 | 4060 ± 367 | 732 ± 56 | 1100 ± 89 | 6.31 | 72 | 7.94 | 269 | – | 117 | 0.478 | 0.663 | 3385 | 0.541 | Kp [4]: 0.538; concentration at 4 h [4, 18]: 161 ± 55 ng/mL; concentration at 4 h [4, 19]: 297 ± 106 ng/mL; AUC ([4]; plasma): 6290 ng·h/mL
COc1cccc2c1cc1n2CCN(CCCCOc2ccc3c(c2)NC(=O)CC3)C1 [I-C2, 7-(4-(9-methoxy-3,4-dihydropyrazino[1,2-a]indol-2(1H)-yl)butoxy)-3,4-dihydroquinolin-2(1H)-one] | 221 | 122 | – | – | – | – | 2800 ± 208 | 3280 ± 456 | 1260 ± 279 | 1510 ± 545 | 44.7 | 81 | 46.3 | 61.7 | 66.1 | 115 | 0.855 | 0.834 | 5561 | 0.931 | Kp [4]: 0.853; concentration at 4 h [4, 18]: 599 ± 54 ng/mL; concentration at 4 h [4, 19]: 558 ± 100 ng/mL; AUC ([4]; plasma): 6520 ng·h/mL

From patent US20250109139A1, “TRICYCLIC COMPOUND, AND PREPARATION METHOD THEREFOR AND USE THEREOF” (SHANGHAITECH UNIVERSITY, priority 2022, published 2025)
